Laboratory results from patent publication US20100062052A1, “PEPTIDE-BASED COMPOUNDS AS NEW INHIBITORS OF METALLOECTOPEPTIDASES, COMPOSITIONS COMPRISING SAID COMPOUNDS AND THEIR PHARMACEUTICAL AND COSMETIC USES” (GREENPHARMA, priority 2007, published 2010).
Residues, ends and D or L forms follow the SMILES beside them. *: point of attachment. Palmitoyl = CCCCCCCCCCCCCCCC(=O)*

Experiment: Solubility in aqueous Tris-buffer
Assay type: physicochemical
Conditions: diluted from ethanol stock, read-out: solubility limit in aqueous Tris-buffer conditions

solubility: ≤ 70 µM
SMILES: CCCCCCCCCCCCCCCC(=O)N[C@@H](CCC(N)=O)C(=O)N[C@@H](CCCNC(=N)N)C(=O)N[C@@H](Cc1ccccc1)C(=O)N[C@@H](CO)C(=O)N[C@@H](CCCNC(=N)N)C(N)=O [Pal-QRFSR-NH2, palmitoyl-QRFSR-NH2] (Palmitoyl-QRFSR-NH2)
